Assay results as given in patent US5385842A, “Anthraquinones as inhibitors of sulfide production from sulfate-reducing bacteria” (E. I. Du Pont de Nemours and Company, priority 1993, dated 1995).

How the values were obtained:
[1] = test system: Desulfovibrio desulfuricans G100A; assay: microbe, parasite or virus in culture; assay type: cell-based
[2] = test system: B. aureus, B. subtilis, B. stearothermophilus and S. aureus; details: background art; cited from earlier work
[3] = test system: Bacillus, Nocardia, Streptomyces, Proteus; details: background art; cited from earlier work
[4] = test system: E. coli, Pseudomonas, Salmonella or Sarcina; details: background art; cited from earlier work
D. desulfuricans G100A [5] = assay: Growth of D. desulfuricans G100A after addition of inhibitor at 12 h; assay type: cell-based
Protocol: Four 10 ml culture tubes of BTZ-3 medium as defined in Example 1 supplemented with sodium lactate (40 mM) and sodium sulfate (30 mM) and 0.5 ml of reducing agent were inoculated with 100 ul of a fully grown suspension of D. desulfuricans G100A. The culture was allowed to grow and the optical density at 660 nm was monitored until the cells entered into exponential growth (approx. 12-15 h, O.D. 660=0.1-0.2). At this time 100 ul of a 300 ppm solution of 1,8 dihydroxyanthraquinone, 1-chloranthraquinone or 3-chloro-2-anthraquinone carboxylic acid, respectively, was added to one of the tubes. The ethanol:water (80:20) solvent (100 μl ) was added to the fourth tube to serve as an uninhibited control.
#3 ppm inhibitor added at 12 hours

D. desulfuricans G100A [6] = assay: Effect of dithionite-reduced anthraquinones on growth of D. desulfuricans G100A; assay type: cell-based
Protocol: Three anthraquinones, 1,8-dihydroxy-, 1-chloro-, and 3-chloro-2-carboxy- were prepared as 1 ml of 1000 ppm solutions in acetone for the first two compounds or water for the third. These solutions were then treated with 1 mg of the strong reducing agent, sodium dithionite. 50 ul of each solution (for a final culture concentration of 5 ppm) was used immediately to treat growing cultures of D. desulfuricans G100A in BTZ-3 medium as defined in Example 1. The compounds were added to the 10 ml cultures at 15 h of growth.

Desulfovibrio gigas = assay: Sulfide production by resting cells of D. gigas; assay type: cell-based
Protocol: Experiments in this example were carried out using resting cells of Desulfovibrio gigas rather than growing cells as was the case for the autoanalyzer system employing the Desulfovibrio desulfuricans G100A strain. […] Thus the experiment examined a different organism, different test system, and a different physiological state for the phenomenon of anthraquinone inhibition of sulfide production by Desulfovibrio sp. Active compounds, as determined by the autoanalyzer, were evaluated in comparison with four additional compounds not evaluated in the autoanalyzer.
500 ml cultures of Desulfovibrio gigas were grown on standard BTZ-3 medium as previously described in Example 1 with 30 mM sodium lactate, 30 mM sodium sulfate and 30 mM sodium fumarate. The culture was harvested after 24 h of growth at 31° C. by centrifugation at 8000 rpm in a GSA Sorvall rotor for 20 minutes. The cell pellet was resuspended in 30 ml of incubation assay mixture of the following composition: 50 mM HEPES buffer pH 7 buffer, 2.5 mM sodium lactate, 2.5 mM sodium sulfate. This suspension was centrifuged again at 10,000 rpm in a Sorvall SS-34 rotor for 5 minutes. The resulting cell pellet was resuspended in 5 ml of incubation assay buffer. Cell densities were generally near 10e10 cells/mi.
The samples were assayed for production in the presence of anthraquinones. 200 ul of the cell suspension was added to 1.2 ml of incubation assay mixture in a 5 ml capacity test tube. The tube was gassed with hydrogen gas for 20 minutes then the anthraquinones were added as ethanolic solutions, the tubes were then gassed with hydrogen again for 5 minutes. The reaction mixtures were then incubated for 3 hours at 31° C. The reactions were stopped by the addition of 200 ul of 1N sodium hydroxide. After 20 minutes the alkaline mixtures were centrifuged in a table top microfuge for 4 minutes at 14,000 rpm to remove cells and cell debris. The supernatant was then assayed for sulfide using the ferric chloride-DPD reagent system as described by Siegel et al., Anal. Blochem., 11:126-132, 1965, herein incorporated by reference.

[7] = test system: D. desulfuricans #ATCC27774; assay: Respiration rate (hydrogen gas uptake) with sulfate as electron acceptor; details: Desulfovibrio desulfuricans, ATCC27774, 4 h, pH 7, read-out: Gas Uptake (as percent of control)
[8] = test system: sulfate-reducing bacteria; details: background art; cited from earlier work
bacteria = details: background art; cited from earlier work
anaerobic bacteria = details: background art; cited from earlier work
[9] = Desulfovibrio desulfuricans, G100A, read-out: % Inhib. (inhibition of sulfide production)

In the case of `O=C1c2ccccc2C(=O)c2c1ccc(O)c2O` [1,2-Dihydroxyanthraquinone], the inhibition at 10 ppm [1, 9] is listed as 68.9% and the “antibacterial activity (in words)” value [2] is listed as “either inactive against these strains or required concentrations in excess of 100 to 1000 ppm for inhibition”.
For `O=C1c2cc(O)cc(O)c2C(=O)c2c(O)ccc(O)c21` [1,4,6,8-tetrahydroxyanthraquinone], the “antibacterial activity (in words)” value [3] is listed as “inhibited 4 species of Bacillus, one strain of Nocardia, one strain (out of four tested) of Streptomyces and one of the Gram negative Proteus” and the “antibacterial activity (in words)” value [4] is listed as “did not affect any species of E. coli, Pseudomonas, Salmonella or Sarcina”.
In the case of `Nc1ccc(O)c2c1C(=O)c1ccccc1C2=O` [1-Amino-4-hydroxyanthraquinone], the inhibition at 30 ppm [1, 9] is given as 54.3% and the “antibacterial activity (in words)” value [2] is given as “either inactive against these strains or required concentrations in excess of 100 to 1000 ppm for inhibition”.
For `O=C1c2ccccc2C(=O)c2c(Cl)cccc21` [1-Chloroanthraquinone], the inhibition at 30 ppm [1, 9] was 20.8%, the “optical density reading at 660 nm” value (D. desulfuricans G100A [5]; 0 h of growth, before addition of 3 ppm inhibitor at 12 h) was “.01” and the “optical density reading at 660 nm” value (D. desulfuricans G100A [5]; 10 h of growth, before addition of 3 ppm inhibitor at 12 h) was “.11”. For the same compound, the “optical density reading at 660 nm” value (D. desulfuricans G100A [5]; 12 h of growth, 3 ppm inhibitor added at 12 h) was “.12”, the “optical density reading at 660 nm” value (D. desulfuricans G100A [5]; 14 h of growth, 3 ppm inhibitor added at 12 h) was “.12” and the “optical density reading at 660 nm” value (D. desulfuricans G100A [5]; 18 h of growth, 3 ppm inhibitor added at 12 h) was “.27”. The “optical density reading at 660 nm” value (D. desulfuricans G100A [5]; 20 h of growth, 3 ppm inhibitor added at 12 h) was “.32”, the “optical density reading at 660 nm” value (D. desulfuricans G100A [5]; 24 h of growth, 3 ppm inhibitor added at 12 h) was “.32” and the “optical density reading at 660 nm” value (D. desulfuricans G100A [5]; 29 h of growth, 3 ppm inhibitor added at 12 h) was “.30”. For the same compound, the “optical density reading at 660 nm” value (D. desulfuricans G100A [5]; 34 h of growth, 3 ppm inhibitor added at 12 h) was “.32”, the “optical density reading at 660 nm” value (D. desulfuricans G100A [5]; 62 h of growth, 3 ppm inhibitor added at 12 h) was “.26” and the “optical density reading at 660 nm” value (D. desulfuricans G100A [5]; 92 h of growth, 3 ppm inhibitor added at 12 h) was “.23”. For the same compound, the “Optical Density @ 660 nm” value (D. desulfuricans G100A [6]; 0 h, before addition of 5 ppm dithionite-reduced compound at 15 h, control 0.02) was 0.02, the “Optical Density @ 660 nm” value (D. desulfuricans G100A [6]; 2 h, before addition of 5 ppm dithionite-reduced compound at 15 h, control 0.02) was 0.02 and the “Optical Density @ 660 nm” value (D. desulfuricans G100A [6]; 12 h, before addition of 5 ppm dithionite-reduced compound at 15 h, control 0.08) was 0.08. The “Optical Density @ 660 nm” value (D. desulfuricans G100A [6]; 15 h, time of addition of 5 ppm dithionite-reduced compound, control 0.18) was 0.15, the “Optical Density @ 660 nm” value (D. desulfuricans G100A [6]; 17 h, 5 ppm dithionite-reduced compound added at 15 h, control 0.26) was 0.20 and the “Optical Density @ 660 nm” value (D. desulfuricans G100A [6]; 20 h, 5 ppm dithionite-reduced compound added at 15 h, control 0.37) was 0.21. The “Optical Density @ 660 nm” value (D. desulfuricans G100A [6]; 25 h, 5 ppm dithionite-reduced compound added at 15 h, control 0.50) was 0.22, the “Optical Density @ 660 nm” value (D. desulfuricans G100A [6]; 30 h, 5 ppm dithionite-reduced compound added at 15 h, control 0.98) was 0.22 and the “Optical Density @ 660 nm” value (D. desulfuricans G100A [6]; 45 h, 5 ppm dithionite-reduced compound added at 15 h, control 1.50) was 0.24. It also gave an activity at 0.1 ppm (Desulfovibrio gigas; Desulfovibrio, 0.1 ppm, 3 hours at 31° C.) of 81%, an activity at 0.5 ppm (Desulfovibrio gigas; Desulfovibrio, 0.5 ppm, 3 hours at 31° C.) of 26% and an activity at 2 ppm (Desulfovibrio gigas; Desulfovibrio, 2 ppm, 3 hours at 31° C.) of 1.6%. The activity at 5 ppm (Desulfovibrio gigas; Desulfovibrio, 5 ppm, 3 hours at 31° C.) was 1.3%, the “inhibition of sulfide production (in words)” value (Desulfovibrio gigas; resting cells) was “inhibitory properties” and the activity at 0.6 ppm [7] was 74%. For the same compound, the activity at 1.5 ppm [7] was 50% and the activity at 3 ppm [7] was 38%.
In the case of `N#CC(Br)(Br)C(N)=O` [2,2-Dibromo-3-nitrilopropionamide], the “effective / use concentration against sulfate-reducers” value [8] is given as 3-12 ppm.
For `[H]/N=C(\N/C(=N/[H])NCCCCCCNC(=N)NC(=N)Nc1ccc(Cl)cc1)Nc1ccc(Cl)cc1` [Chlorhexidine, reference compound], the “inhibition of sulfide production (in words)” value [1] is given as “inhibits sulfide production”, the “% inhibition of sulfide formation” value ([1]; Table III, Example 3) is given as 88.7% and the “effective / use concentration against sulfate-reducers” value [8] is given as 1-10 ppm.
For `O=C(O)c1cc(O)c2c(c1)C(=O)c1cccc(O)c1C2=O` [Rhein, 9,10-Dihydro-4,5-dihydroxy-9,10-dioxo-2-anthracenecarboxylic acid], the inhibition at 30 ppm [1, 9] is given as 48.6% and the “antibacterial activity (in words)” value (bacteria) is given as “active component of leaf extracts of Cassia sp”.
For `Cc1ncc([N+](=O)[O-])n1CCO` [metronidazole], the “effectiveness (in words)” value (anaerobic bacteria) is listed as “generally effective against anaerobic bacteria”.
In the case of molybdate, the “effective / use concentration against sulfate-reducers” value [8] is given as 1000-4000 ppm.
